Holding throughout (assay type): toxicity, cell-based
One data set has as its system Fibroblast. As to the kind of experiment: Incucyte cell viability with human fibroblast. The settings on record: 10 µM, compound concentration 10 uM.
The test system of a further data set is HEK-293T. The data set is described as follows: Incucyte cell viability with HEK293T. To be noted: human, 10 µM, compound concentration 10 uM.
The next data set deals with U2OS. The data set is described as follows: Incucyte cell viability with U2OS. To be noted: human, 10 µM, compound concentration 10 uM.
[1] abbreviates: 6 h, replicate number 1, timepoint 6 hours.
Setting [2] is: 12 h, replicate number 1, timepoint 12 hours.
Where [3] appears, read: 18 h, replicate number 1, timepoint 18 hours.
Setting [4] is: 18 h, replicate number 2, timepoint 18 hours.
[5] abbreviates: 24 h, replicate number 1, timepoint 24 hours.
Where [6] appears, read: 24 h, replicate number 2, timepoint 24 hours.
[7] abbreviates: 0 h, replicate number 2, timepoint 0 hours.
Setting [8] is: 6 h, replicate number 2, timepoint 6 hours.
The mark [9] stands for this setting: 12 h, replicate number 2, timepoint 12 hours.
Setting [10] is: 0 h, replicate number 1, timepoint 0 hours.
Note: unitless GR value; below 1 slowed growth and below 0 cell loss.

In the case of `CCCCCCCCc1ccc(CC[C@](N)(CO)COP(=O)(O)O)cc1` [FTY720-P], the “Growth Rate” value is recorded as 0.71 with Fibroblast (setting [1]); 0.21 in the data set on Fibroblast (setting [2]); 0.14 in the data set on Fibroblast (setting [3]); 0.85 in the data set with Fibroblast (setting [4]); 0.09 in the data set on Fibroblast (setting [5]); 0.65 in the data set with Fibroblast (setting [6]). Further, the “Growth Rate” value in the data set with HEK-293T (setting [7]) is recorded as 0.4; in the data set on HEK-293T (setting [1]), -0.47; in the data set on HEK-293T (setting [8]) it was 0.66; in the data set with HEK-293T (setting [2]) it was -0.14; with HEK-293T (setting [9]) it was 0.46; in the data set on HEK-293T (setting [3]) it was 0.01. Moreover, the “Growth Rate” value in the data set with HEK-293T (setting [4]) is given as 0.48; in the data set with HEK-293T (setting [5]), 0.01; in the data set with HEK-293T (setting [6]), 0.37; in the data set on U2OS (setting [10]) it was 0.2; in the data set on U2OS (setting [7]), -0.7; in the data set with U2OS (setting [1]), 0.87. Also, the “Growth Rate” value with U2OS (setting [8]) came to 0.43; in the data set on U2OS (setting [2]) it was 0.79; in the data set with U2OS (setting [4]) it was 1.
For `CC[C@H]1OC(=O)[C@H](C)[C@@H](O[C@H]2C[C@@](C)(OC)[C@@H](O)[C@H](C)O2)[C@H](C)[C@@H](O[C@@H]2O[C@H](C)C[C@H](N(C)C)[C@H]2O)[C@@]2(C)CC(C)=C(O2)[C@H](C)[C@@H](O)[C@]1(C)O`, the “Growth Rate” value in the data set on Fibroblast (setting [1]) is given as 0.46; in the data set on Fibroblast (setting [8]), 0.95; with Fibroblast (setting [2]), 0.38; with Fibroblast (setting [9]), 0.44; in the data set with Fibroblast (setting [3]), 0.44; in the data set on Fibroblast (setting [5]) it was 0.64. Further, the “Growth Rate” value in the data set on HEK-293T (setting [8]) is on record as 0.55; in the data set with HEK-293T (setting [9]) it was 0.77; in the data set with HEK-293T (setting [4]) it was 0.75; in the data set on HEK-293T (setting [6]) it was 0.82; with U2OS (setting [4]), 0.96.
With `Cc1ccc(-c2ccc(F)cc2COc2ccc(CCC(=O)O)cc2)cc1`, the “Growth Rate” value came to 0.45 in the data set on Fibroblast (setting [7]); 0.23 in the data set on Fibroblast (setting [1]); 0.58 in the data set on Fibroblast (setting [2]); 0.18 in the data set on Fibroblast (setting [3]); 0.42 with Fibroblast (setting [5]); 0.43 in the data set on HEK-293T (setting [10]). The “Growth Rate” value is given as 0.55 in the data set with HEK-293T (setting [7]), -0.34 in the data set on U2OS (setting [10]) and -0.59 in the data set with U2OS (setting [7]).
As for `Cc1cccc(S(=O)(=O)N(C)[C@H](C)CCN2CCC(C)CC2)c1.Cl`, the “Growth Rate” value in the data set on Fibroblast (setting [10]) is 0.08; in the data set on Fibroblast (setting [1]), 0.83; in the data set on Fibroblast (setting [8]) it was 0.52; in the data set on HEK-293T (setting [7]), 0.65; with HEK-293T (setting [8]) it was 0.92; in the data set on HEK-293T (setting [3]), 0.84. For the same compound, the “Growth Rate” value in the data set on HEK-293T (setting [4]) is given as 0.87; with HEK-293T (setting [5]), 0.69; with HEK-293T (setting [6]), 0.66; with U2OS (setting [10]), 0.29; in the data set on U2OS (setting [7]) it was -0.95; with U2OS (setting [8]) it was 0.95. The “Growth Rate” value in the data set with U2OS (setting [4]) is 0.97.
On to `CC(C)Cc1ccc([C@@H](C)C(=O)NS(C)(=O)=O)cc1` [REPARIXIN], for which the “Growth Rate” value in the data set on Fibroblast (setting [1]) was 0.51; in the data set on Fibroblast (setting [8]) it was -0.08; in the data set on Fibroblast (setting [2]) it was 0.63; with Fibroblast (setting [9]), 0.66; in the data set on Fibroblast (setting [3]) it was 0.6; in the data set with Fibroblast (setting [4]) it was 0.65. Moreover, the “Growth Rate” value is listed as 0.06 in the data set with Fibroblast (setting [5]); 0.95 with Fibroblast (setting [6]); 0.48 in the data set on HEK-293T (setting [7]); 0.78 in the data set with HEK-293T (setting [2]); 0.7 in the data set with HEK-293T (setting [3]); 0.83 in the data set on HEK-293T (setting [4]). The “Growth Rate” value in the data set with HEK-293T (setting [5]) was 0.82; in the data set with U2OS (setting [10]), -0.7; in the data set with U2OS (setting [7]), -1; with U2OS (setting [8]), 0.83; in the data set on U2OS (setting [9]), 0.88; with U2OS (setting [4]), 0.86. In addition, the “Growth Rate” value in the data set with U2OS (setting [6]) stood at 0.93.

For the origin of these results see ChEMBL document CHEMBL5058564, “EUbOPEN Chemogenomics Library 2 (Incucyte)” (2022).
